Where two headings read alike, the source gives them in different places.

This is an account of results in patent US10131645B2, “Benzofurans substituted with primary benzamide as HCV inhibitors” (BRISTOL-MYERS SQUIBB COMPANY, priority 2015, dated 2018).

Series [1] concerns genotype 1b (Con-1) HCV replicon. Kind of series: HCV Replicon Luciferase Assay. The series is classed as cell-based. Conditions: Hepatitis C virus, 72 h, Huh-7 cells, genotype 1b replicon, Renilla luciferase, 3 days incubation. On the procedure:
The cell lines used to evaluate compounds consist of a human hepatocyte derived cell line (Huh-7) that constitutively expresses a genotype 1b (Con-1) HCV replicon or a genotype 1b (Con-1) HCV replicon with an asparagine replacing the cysteine at amino acid 316, or a genotype 2a (JFH-1) replicon, containing a Renilla luciferase reporter gene. These cells were maintained in Dulbecco's modified Eagle medium (DMEM) containing 10% FBS, 100 U/mL penicillin/streptomycin and 1.0 mg/mL G418.
To evaluate compound efficacy, titrated compounds were transferred to sterile 384-well tissue culture treated plates, and the plates were seeded with HCV replicon cells (50 μL at a density of 2.4×10^3 cells/well) in DMEM containing 4% FBS (final DMSO concentration at 0.5%). After 3 days incubation at 37° C., cells were analyzed for Renilla Luciferase activity using the EnduRen substrate (Promega cat #E6485) according to the manufacturer's directions. Briefly, the EnduRen substrate was diluted in DMEM and then added to the plates to a final concentration of 7.5 μM. The plates were incubated for at least 1 h at 37° C. then read on a Viewlux Imager (PerkinElmer) using a luminescence program. The 50% effective concentration (EC50) was calculated using the four-parameter logistic formula noted above.

In the next series the test system is HCV. Conditions: cited from earlier work.

As to `CCNc1cc2oc(-c3ccc(F)cc3)c(C(=O)NC)c2cc1-c1cccc(C(=O)NCC(F)(F)c2ccccc2)c1` [Compound 1001], in series [1] (read-out: EC50 (uM) 1b), the EC50 came out at 0.0486 µM.

Turning to `CCNc1cc2oc(-c3ccc(F)cc3)c(C(=O)NC)c2cc1-c1cccc(C(=O)NCC(F)(F)c2ccccn2)c1` [Compound 1002], the EC50 in series [1] (read-out: EC50 1b (class)) was below 0.1 µM.

`CCNc1cc2oc(-c3ccc(F)cc3)c(C(=O)NC)c2cc1-c1cccc(C(=O)NCC(C)(C)c2ccccc2)c1` [Compound 1003]: the EC50 in series [1] (read-out: EC50 1b (class)) was below 0.1 µM.

As for `CCNc1cc2oc(-c3ccc(F)cc3)c(C(=O)NC)c2cc1-c1cccc(C(=O)NCC(C)(C)c2ccc(Cl)cc2)c1` [Compound 1004], the EC50 in series [1] (read-out: EC50 1b (class)) was below 0.1 µM.

Turning to `CCNc1cc2oc(-c3ccc(F)cc3)c(C(=O)NC)c2cc1-c1cccc(C(=O)NC(C)(C(=O)OC)C(F)(F)F)c1` (centres unmarked) [Compound 1005], the EC50 in series [1] (read-out: EC50 1b (class)) was below 0.1 µM.

With `CCNc1cc2oc(-c3ccc(F)cc3)c(C(=O)NC)c2cc1-c1cccc(C(=O)NC(C#N)c2ccccc2)c1` (centres unmarked) [Compound 1006], in series [1] (read-out: EC50 (uM) 1b), the EC50 was 0.0162 µM.

`CCNc1cc2oc(-c3ccc(F)cc3)c(C(=O)NC)c2cc1-c1cccc(C(=O)NC(C#N)C(=O)NC)c1` (centres unmarked) [Compound 1007]: in series [1] (read-out: EC50 1b (class)), the concentration for a half-maximal effect (EC50) was below 0.1 µM.

For `CCNc1cc2oc(-c3ccc(F)cc3)c(C(=O)NC)c2cc1-c1cccc(C(=O)NC(C#N)C(N)=O)c1` (centres unmarked) [Compound 1008], the EC50 in series [1] (read-out: EC50 1b (class)) is below 0.1 µM.

For `CCNc1cc2oc(-c3ccc(F)cc3)c(C(=O)NC)c2cc1-c1cccc(C(=O)NC[C@H](F)CO)c1` [Compound 1009], the EC50 in series [1] (read-out: EC50 1b (class)) was below 0.1 µM.

Consider `CCNc1cc2oc(-c3ccc(F)cc3)c(C(=O)NC)c2cc1-c1cccc(C(=O)NC(C)(C#N)C2CC2)c1` (centres unmarked) [Compound 1010], for which, in series [1] (read-out: EC50 1b (class)), the EC50 is below 0.1 µM.

Take `CCNc1cc2oc(-c3ccc(F)cc3)c(C(=O)NC)c2cc1-c1cccc(C(=O)NC(C2CC2)C(F)(F)F)c1` (centres unmarked) [Compound 1011]: in series [1] (read-out: EC50 (uM) 1b), the EC50 was 0.0128 µM.

In the case of `CCNc1cc2oc(-c3ccc(F)cc3)c(C(=O)NC)c2cc1-c1cccc(C(=O)NC(C(=O)OC)C(F)(F)F)c1` (centres unmarked) [Compound 1012], in series [1] (read-out: EC50 1b (class)), the EC50 lay within 0.1 to 1 µM.

Turning to `CCN(c1cc2oc(-c3ccc(F)cc3)c(C(=O)NC)c2cc1-c1cccc(C(=O)NC(c2ccccc2)C(F)(F)F)c1)S(C)(=O)=O` (centres unmarked) [Compound 2001], the EC50 in series [1] (read-out: EC50 1b (class)) was below 0.1 µM.

In the case of `CCN(c1cc2oc(-c3ccc(F)cc3)c(C(=O)NC)c2cc1-c1cccc(C(=O)NC(c2ccccn2)C(F)(F)F)c1)S(C)(=O)=O` (centres unmarked) [Compound 2002], in series [1] (read-out: EC50 1b (class)), the EC50 is below 0.1 µM.

With `CCN(c1cc2oc(-c3ccc(F)cc3)c(C(=O)NC)c2cc1-c1cccc(C(=O)NC(C2CC2)C(F)(F)F)c1)S(C)(=O)=O` (centres unmarked) [Compound 2003], the EC50 in series [1] (read-out: EC50 1b (class)) is below 0.1 µM.

With `CCN(c1cc2oc(-c3ccc(F)cc3)c(C(=O)NC)c2cc1-c1cccc(C(=O)NC(c2cccnc2)C(F)(F)F)c1)S(C)(=O)=O` (centres unmarked) [Compound 2004], the EC50 in series [1] (read-out: EC50 (uM) 1b) came out at 0.0096 µM.

As to `CCN(c1cc2oc(-c3ccc(F)cc3)c(C(=O)NC)c2cc1-c1cccc(C(=O)NC(C(=O)OC)C(F)(F)F)c1)S(C)(=O)=O` (centres unmarked) [Compound 2005], the EC50 in series [1] (read-out: EC50 1b (class)) lay in the range of 0.1 to 1 µM.

As for `CCN(c1cc2oc(-c3ccc(F)cc3)c(C(=O)NC)c2cc1-c1cccc(C(=O)NC(C#N)c2ccccc2)c1)S(C)(=O)=O` (centres unmarked) [Compound 2006], the EC50 in series [1] (read-out: EC50 1b (class)) is below 0.1 µM.

`CCN(c1cc2oc(-c3ccc(F)cc3)c(C(=O)NC)c2cc1-c1cccc(C(=O)NC(C(N)=O)c2ccccc2)c1)S(C)(=O)=O` (centres unmarked) [Compound 2007]: in series [1] (read-out: EC50 1b (class)), the EC50 was in the range of 0.1 to 1 µM.

As to `CCOc1cc(C(C#N)NC(=O)c2cccc(-c3cc4c(C(=O)NC)c(-c5ccc(F)cc5)oc4cc3N(CC)S(C)(=O)=O)c2)ccc1OC(C)C` (centres unmarked) [Compound 2008], the EC50 in series [1] (read-out: EC50 1b (class)) is below 0.1 µM.

Regarding `CCN(c1cc2oc(-c3ccc(F)cc3)c(C(=O)NC)c2cc1-c1cccc(C(=O)NC(C)(C#N)C2CC2)c1)S(C)(=O)=O` (centres unmarked) [Compound 2009], the EC50 in series [1] (read-out: EC50 (uM) 1b) is 0.0032 µM.

`CNC(=O)c1c(-c2ccc(F)cc2)oc2cc(N(CC3CC3)S(C)(=O)=O)c(-c3cccc(C(=O)NC(C)(C#N)C4CC4)c3)cc12` (centres unmarked) [Compound 3001]: the EC50 in series [1] (read-out: EC50 1b (class)) is below 0.1 µM.

As for `CNC(=O)c1c(-c2ccc(F)cc2)oc2cc(N(CCF)S(C)(=O)=O)c(-c3cccc(C(=O)N[C@H](COC)C4CC4)c3)cc12` [Compound 4001], the EC50 in series [1] (read-out: EC50 1b (class)) is below 0.1 µM.

As for `CNC(=O)c1c(-c2ccc(F)cc2)oc2cc(N(CCF)S(C)(=O)=O)c(-c3cccc(C(=O)N[C@@H](COC)C4CC4)c3)cc12` [Compound 4002], in series [1] (read-out: EC50 1b (class)), the EC50 was below 0.1 µM.

Turning to `CNC(=O)c1c(-c2ccc(F)cc2)oc2cc(N(CCF)S(C)(=O)=O)c(-c3cccc(C(=O)N[C@@H](CO)C4CC4)c3)cc12` [Compound 4003], in series [1] (read-out: EC50 1b (class)), the EC50 is below 0.1 µM.

Consider `CNC(=O)c1c(-c2ccc(F)cc2)oc2cc(N(CCCF)S(C)(=O)=O)c(-c3cccc(C(=O)NC(C4CC4)C(F)(F)F)c3)cc12` (centres unmarked) [Compound 5001], for which, in series [1] (read-out: EC50 (uM) 1b), the EC50 stood at 0.0229 µM.

On to `CNC(=O)c1c(-c2ccc(F)cc2)oc2cc(N(CCCF)S(C)(=O)=O)c(-c3cccc(C(=O)NC(c4ccccn4)C(F)(F)F)c3)cc12` (centres unmarked) [Compound 5002], for which, in series [1] (read-out: EC50 1b (class)), the EC50 was below 0.1 µM.

Consider `CNC(=O)c1c(-c2ccc(F)cc2)oc2cc(N(CCCF)S(C)(=O)=O)c(-c3cccc(C(=O)NC(C)(C#N)C4CC4)c3)cc12` (centres unmarked) [Compound 5003], for which the EC50 in series [1] (read-out: EC50 1b (class)) was below 0.1 µM.

`CCN(CC)c1cc2oc(-c3ccc(F)cc3)c(C(=O)NC)c2cc1-c1cccc(C(=O)NC(C(N)=O)c2ccccc2)c1` (centres unmarked) [Compound 6001]: in series [1] (read-out: EC50 1b (class)), the EC50 was below 0.1 µM.

As to `CCN(CC)c1cc2oc(-c3ccc(F)cc3)c(C(=O)NC)c2cc1-c1cccc(C(=O)N[C@@H](CO)C(N)=O)c1` [Compound 6002], in series [1] (read-out: EC50 1b (class)), the EC50 fell in the range of 0.1 to 1 µM.

Turning to `CCN(CC)c1cc2oc(-c3ccc(F)cc3)c(C(=O)NC)c2cc1-c1cccc(C(=O)N[C@]2(C(=O)O)C[C@@H]2CO)c1` [Compound 6004], the EC50 in series [1] (read-out: EC50 (uM) 1b) came out at 0.946 µM.

Regarding `CCN(CC)c1cc2oc(-c3ccc(F)cc3)c(C(=O)NC)c2cc1-c1cccc(C(=O)NCC(C(=O)O)C(F)(F)F)c1` (centres unmarked) [Compound 6005], the EC50 in series [1] (read-out: EC50 1b (class)) lay in the range of 0.1 to 1 µM.

In the case of `CCN(C(=O)C(F)(F)F)c1cc2oc(-c3ccc(F)cc3)c(C(=O)NC)c2cc1-c1cccc(C(=O)NC(C(=O)OC)C(F)(F)F)c1` (centres unmarked) [Compound 7001], the EC50 in series [1] (read-out: EC50 1b (class)) was in the range of 0.1 to 1 µM.

Regarding `CNC(=O)c1c(-c2ccc(F)cc2)oc2cc(N(CCO)S(C)(=O)=O)c(C3CC3)cc12` [HCV-796], the hepatic toxicity entry in the series with HCV (extended dosing of the combination regimens) is recorded as “hepatic toxicity observed”. The “HCV RNA levels in patients” value in the series with HCV (patients, single agent transient, more robust with interferon and ribavirin) is “reduce HCV RNA levels”.
